What was measured:
[1] = target: Kappa-type opioid receptor (Rattus norvegicus, UniProt P34975); assay: Displacement of [3H]U-69593 from rat cloned KOR
[2] = target: Kappa-type opioid receptor (Homo sapiens, UniProt P41145); assay: Activity at human kappa opioid receptor expressed in HEK293 cells as intracellular calcium mobilization; format: functional, cell-based
Kappa-type opioid receptor (Homo sapiens, UniProt P41145), sequence (P41145 whole entry): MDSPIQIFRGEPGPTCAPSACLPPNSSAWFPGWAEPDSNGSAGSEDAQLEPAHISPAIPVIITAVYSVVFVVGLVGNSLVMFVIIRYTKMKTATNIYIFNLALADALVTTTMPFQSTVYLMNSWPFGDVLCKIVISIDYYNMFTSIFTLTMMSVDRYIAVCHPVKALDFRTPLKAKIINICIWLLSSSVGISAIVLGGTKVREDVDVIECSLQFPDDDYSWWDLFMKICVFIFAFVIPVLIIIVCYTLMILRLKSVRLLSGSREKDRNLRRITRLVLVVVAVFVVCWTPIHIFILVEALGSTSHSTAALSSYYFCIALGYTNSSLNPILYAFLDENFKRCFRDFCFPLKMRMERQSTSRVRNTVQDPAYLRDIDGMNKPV

Kappa-type opioid receptor (Rattus norvegicus, UniProt P34975), sequence (P34975 whole entry): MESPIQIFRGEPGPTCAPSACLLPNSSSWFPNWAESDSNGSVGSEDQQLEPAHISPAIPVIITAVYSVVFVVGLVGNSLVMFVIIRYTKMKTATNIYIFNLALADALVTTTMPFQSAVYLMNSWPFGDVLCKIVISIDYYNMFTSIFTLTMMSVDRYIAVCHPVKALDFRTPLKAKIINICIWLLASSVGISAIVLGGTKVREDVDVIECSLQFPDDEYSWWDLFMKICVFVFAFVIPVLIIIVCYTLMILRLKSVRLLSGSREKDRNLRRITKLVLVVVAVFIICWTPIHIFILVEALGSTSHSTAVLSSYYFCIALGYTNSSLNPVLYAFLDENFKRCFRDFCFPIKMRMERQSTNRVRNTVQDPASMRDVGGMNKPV

SMILES | Ki [1] [nM] | EC50 [2] [nM] | Emax [2] [%]
COC(=O)[C@@H]1C[C@H](S)C(=O)[C@H]2[C@@]1(C)CC[C@H]1C(=O)O[C@H](c3ccoc3)C[C@]21C [2-THIOSALVINORIN B] | 54.5 | 287 | 89
COC(=O)[C@@H]1C[C@@H](SC(C)=O)C(=O)[C@H]2[C@@]1(C)CC[C@H]1C(=O)O[C@H](c3ccoc3)C[C@]21C [2-EPI-2-THIOSALVINORIN A] | 151 | 123 | 106
COC(=O)[C@@H]1C[C@@H](S)C(=O)[C@H]2[C@@]1(C)CC[C@H]1C(=O)O[C@H](c3ccoc3)C[C@]21C [2-EPI-2-THIOSALVINORIN B] | 546 | > 2000 | 71
